# Measurements: patent US9932340B2, “Substituted indoles” (AbbVie Inc., priority 2014, dated 2018)
# Molecular target: SUV420H1 enzyme (Homo sapiens, UniProt Q4FZB7)
# Assay: TR-FRET SAH SUV420H1 enzyme inhibition assay
# Assay type: biochemical
# Conditions: Histone Peptide H4(8-30)me1 and SAM, overnight at room temp, TR-FRET detection of SAH, read-out: TR-FRET SAH_SUV420H1 IC50
# Method in brief: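 SUV420H1 (90 nM) preincubated 30 min with compound (3-fold dilutions, 50 to 0.00075 μM), then H4(8-30)me1 peptide 5 nM and SAM 4 nM added, overnight at room temp. SAH product detected by TR-FRET with Tb anti-SAH antibody and Oregon Green-SAH in RIPA buffer, 4 h; IC50 from Hill fit, asymptotes fixed 0-100%.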
# Sequence of SUV420H1 enzyme (Q4FZB7 whole entry): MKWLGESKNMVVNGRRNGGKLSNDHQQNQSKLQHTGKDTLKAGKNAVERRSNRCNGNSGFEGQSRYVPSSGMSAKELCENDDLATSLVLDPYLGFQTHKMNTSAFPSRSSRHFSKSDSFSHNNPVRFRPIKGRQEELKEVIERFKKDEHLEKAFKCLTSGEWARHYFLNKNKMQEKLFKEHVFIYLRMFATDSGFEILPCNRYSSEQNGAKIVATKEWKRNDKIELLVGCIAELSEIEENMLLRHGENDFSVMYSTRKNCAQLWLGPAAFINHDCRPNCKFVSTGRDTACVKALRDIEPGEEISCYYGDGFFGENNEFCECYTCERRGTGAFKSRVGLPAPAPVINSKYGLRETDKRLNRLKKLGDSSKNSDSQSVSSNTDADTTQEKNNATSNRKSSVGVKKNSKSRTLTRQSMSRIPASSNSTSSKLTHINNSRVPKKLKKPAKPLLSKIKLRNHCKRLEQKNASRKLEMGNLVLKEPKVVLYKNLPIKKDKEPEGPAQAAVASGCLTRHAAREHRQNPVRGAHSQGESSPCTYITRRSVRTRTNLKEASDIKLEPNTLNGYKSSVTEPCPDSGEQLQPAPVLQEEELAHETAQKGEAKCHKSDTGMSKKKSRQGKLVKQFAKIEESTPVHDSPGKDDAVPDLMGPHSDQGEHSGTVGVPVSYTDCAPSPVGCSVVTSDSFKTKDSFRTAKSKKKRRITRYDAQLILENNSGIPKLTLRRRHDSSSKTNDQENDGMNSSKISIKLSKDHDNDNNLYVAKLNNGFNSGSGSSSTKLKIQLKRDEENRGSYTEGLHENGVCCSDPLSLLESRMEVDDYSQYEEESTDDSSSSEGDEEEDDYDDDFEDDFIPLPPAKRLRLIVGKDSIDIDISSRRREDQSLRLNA
row,Compound,IC50
1,"Nc1ncnc2c1ncn2Cc1cc(Cl)cc2cc(CNC(=O)Cc3cccc(Cl)c3)[nH]c12 [Example 252, N-({7-[(6-amino-9H-purin-9-yl)methyl]-5-chloro-1H-indol-2-yl}methyl)-2-(3-chlorophenyl)acetamide]",2.14 µM
2,"Nc1ncnc2c1ncn2Cc1cc(Cl)cc2cc(CNC(=O)Cc3ccccc3Cl)[nH]c12 [Example 253, N-({7-[(6-amino-9H-purin-9-yl)methyl]-5-chloro-1H-indol-2-yl}methyl)-2-(2-chlorophenyl)acetamide]",36.1 µM
3,"Nc1ncnc2c1ncn2Cc1cc(Cl)cc2cc(CNC(=O)Cc3ccc(F)cc3)[nH]c12 [Example 254, N-({7-[(6-amino-9H-purin-9-yl)methyl]-5-chloro-1H-indol-2-yl}methyl)-2-(4-fluorophenyl)acetamide]",> 50 µM
4,"Nc1ncnc2c1ncn2Cc1cc(Cl)cc2cc(CNC(=O)Cc3cccc(F)c3)[nH]c12 [Example 255, N-({7-[(6-amino-9H-purin-9-yl)methyl]-5-chloro-1H-indol-2-yl}methyl)-2-(3-fluorophenyl)acetamide]",15.5 µM
5,"Nc1ncnc2c1ncn2Cc1cc(Cl)cc2cc(CNC(=O)Cc3ccccc3F)[nH]c12 [Example 256, N-({7-[(6-amino-9H-purin-9-yl)methyl]-5-chloro-1H-indol-2-yl}methyl)-2-(2-fluorophenyl)acetamide]",> 50 µM
6,"Nc1ncnc2c1ncn2Cc1cc(Cl)cc2cc(CNC(=O)c3ccccc3C(F)(F)F)[nH]c12 [Example 257, N-({7-[(6-amino-9H-purin-9-yl)methyl]-5-chloro-1H-indol-2-yl}methyl)-2-(trifluoromethyl)benzamide]",0.493 µM
7,"COc1ccc(C(=O)NCc2cc3cc(Cl)cc(Cn4cnc5c(N)ncnc54)c3[nH]2)cc1 [Example 258, N-({7-[(6-amino-9H-purin-9-yl)methyl]-5-chloro-1H-indol-2-yl}methyl)-4-methoxybenzamide]",4.58 µM
8,"COc1cccc(C(=O)NCc2cc3cc(Cl)cc(Cn4cnc5c(N)ncnc54)c3[nH]2)c1 [Example 259, N-({7-[(6-amino-9H-purin-9-yl)methyl]-5-chloro-1H-indol-2-yl}methyl)-3-methoxybenzamide]",3.53 µM
9,"COc1ccccc1C(=O)NCc1cc2cc(Cl)cc(Cn3cnc4c(N)ncnc43)c2[nH]1 [Example 260, N-({7-[(6-amino-9H-purin-9-yl)methyl]-5-chloro-1H-indol-2-yl}methyl)-2-methoxybenzamide]",3.55 µM
10,"Nc1ncnc2c1ncn2Cc1cc(Cl)cc2cc(CNC(=O)c3ccccc3OC(F)F)[nH]c12 [Example 261, N-({7-[(6-amino-9H-purin-9-yl)methyl]-5-chloro-1H-indol-2-yl}methyl)-2-(difluoromethoxy)benzamide]",1.99 µM
11,"CS(=O)(=O)c1cccc(CNCc2cc3cc(Cl)cc(Cn4cnc5c(N)ncnc54)c3[nH]2)c1 [Example 262, 9-{[5-chloro-2-({[3-(methylsulfonyl)benzyl]amino}methyl)-1H-indol-7-yl]methyl}-9H-purin-6-amine]",2.75 µM
12,"CS(=O)(=O)c1cc(CNCc2cc3cc(Cl)cc(Cn4cnc5c(N)ncnc54)c3[nH]2)ccc1F [Example 263, 9-{[5-chloro-2-({[4-fluoro-3-(methylsulfonyl)benzyl]amino}methyl)-1H-indol-7-yl]methyl}-9H-purin-6-amine]",1.75 µM
13,"CS(=O)(=O)c1ccc(CNCc2cc3cc(Cl)cc(Cn4cnc5c(N)ncnc54)c3[nH]2)cc1F [Example 264, 9-{[5-chloro-2-({[3-fluoro-4-(methylsulfonyl)benzyl]amino}methyl)-1H-indol-7-yl]methyl}-9H-purin-6-amine]",3.23 µM
14,"CS(=O)(=O)c1ccccc1C(=O)NCc1cc2cc(Cl)cc(Cn3cnc4c(N)ncnc43)c2[nH]1 [Example 265, N-({7-[(6-amino-9H-purin-9-yl)methyl]-5-chloro-1H-indol-2-yl}methyl)-2-(methylsulfonyl)benzamide]",2.14 µM
15,"CS(=O)(=O)c1ccc(C(=O)NCc2cc3cc(Cl)cc(Cn4cnc5c(N)ncnc54)c3[nH]2)c(Cl)c1 [Example 266, N-({7-[(6-amino-9H-purin-9-yl)methyl]-5-chloro-1H-indol-2-yl}methyl)-2-chloro-4-(methylsulfonyl)benzamide]",0.911 µM
16,"N#Cc1ccc(CNCc2cc3cc(Cl)cc(Cn4cnc5c(N)ncnc54)c3[nH]2)cc1 [Example 267, 4-{[({7-[(6-amino-9H-purin-9-yl)methyl]-5-chloro-1H-indol-2-yl}methyl)amino]methyl}benzonitrile]",3.43 µM
17,"N#Cc1cccc(CNCc2cc3cc(Cl)cc(Cn4cnc5c(N)ncnc54)c3[nH]2)c1 [Example 268, 3-{[({7-[(6-amino-9H-purin-9-yl)methyl]-5-chloro-1H-indol-2-yl}methyl)amino]methyl}benzonitrile]",4.64 µM

row,Compound,IC50
1,"N#Cc1ccccc1CNCc1cc2cc(Cl)cc(Cn3cnc4c(N)ncnc43)c2[nH]1 [Example 269, 2-{[({7-[(6-amino-9H-purin-9-yl)methyl]-5-chloro-1H-indol-2-yl}methyl)amino]methyl}benzonitrile]",5.6 µM
2,"N#Cc1ccc(F)c(CNCc2cc3cc(Cl)cc(Cn4cnc5c(N)ncnc54)c3[nH]2)c1 [Example 270, 3-{[({7-[(6-amino-9H-purin-9-yl)methyl]-5-chloro-1H-indol-2-yl}methyl)amino]methyl}-4-fluorobenzonitrile]",3.75 µM
3,"Cc1ccc(N)cc1C(=O)NCc1cc2cc(Cl)cc(Cn3cnc4c(N)ncnc43)c2[nH]1 [Example 271, 5-amino-N-({7-[(6-amino-9H-purin-9-yl)methyl]-5-chloro-1H-indol-2-yl}methyl)-2-methylbenzamide]",2.98 µM
4,"N#Cc1ccc(C(=O)NCc2cc3cc(Cl)cc(Cn4cnc5c(N)ncnc54)c3[nH]2)cc1 [Example 272, N-({7-[(6-amino-9H-purin-9-yl)methyl]-5-chloro-1H-indol-2-yl}methyl)-4-cyanobenzamide]",0.378 µM
5,"N#Cc1cccc(C(=O)NCc2cc3cc(Cl)cc(Cn4cnc5c(N)ncnc54)c3[nH]2)c1 [Example 273, N-({7-[(6-amino-9H-purin-9-yl)methyl]-5-chloro-1H-indol-2-yl}methyl)-3-cyanobenzamide]",1.5 µM
6,"N#Cc1ccccc1C(=O)NCc1cc2cc(Cl)cc(Cn3cnc4c(N)ncnc43)c2[nH]1 [Example 274, N-({7-[(6-amino-9H-purin-9-yl)methyl]-5-chloro-1H-indol-2-yl}methyl)-2-cyanobenzamide]",11.3 µM
7,"CNc1ccccc1C(=O)NCc1cc2cc(Cl)cc(Cn3cnc4c(N)ncnc43)c2[nH]1 [Example 275, N-({7-[(6-amino-9H-purin-9-yl)methyl]-5-chloro-1H-indol-2-yl}methyl)-2-(methylamino)benzamide]",13.2 µM
8,"N#Cc1ccc(C(=O)NCc2cc3cc(Cl)cc(Cn4cnc5c(N)ncnc54)c3[nH]2)c(Cl)c1 [Example 276, N-({7-[(6-amino-9H-purin-9-yl)methyl]-5-chloro-1H-indol-2-yl}methyl)-2-chloro-4-cyanobenzamide]",0.039 µM
9,"N#Cc1ccc(C(=O)NCc2cc3cc(C4=CCNCC4)cc(Cn4cnc5c(N)ncnc54)c3[nH]2)c(Cl)c1 [Example 277, N-({7-[(6-amino-9H-purin-9-yl)methyl]-5-(1,2,3,6-tetrahydropyridin-4-yl)-1H-indol-2-yl}methyl)-2-chloro-4-cyanobenzamide]",0.0351 µM
10,"N#Cc1ccc(C(=O)NCc2cc3cc(C4=CCC(F)(F)CC4)cc(Cn4cnc5c(N)ncnc54)c3[nH]2)c(Cl)c1 [Example 278, N-({7-[(6-amino-9H-purin-9-yl)methyl]-5-(4,4-difluorocyclohex-1-en-1-yl)-1H-indol-2-yl}methyl)-2-chloro-4-cyanobenzamide]",0.0674 µM
11,"CC(=O)N1CC=C(c2cc(Cn3cnc4c(N)ncnc43)c3[nH]c(CNC(=O)c4ccc(C#N)cc4Cl)cc3c2)CC1 [Example 279, N-({5-(1-acetyl-1,2,3,6-tetrahydropyridin-4-yl)-7-[(6-amino-9H-purin-9-yl)methyl]-1H-indol-2-yl}methyl)-2-chloro-4-cyanobenzamide]",0.0493 µM
12,CC(=O)N1CCC=C(c2cc(Cn3cnc4c(N)ncnc43)c3[nH]c(CNC(=O)c4ccc(C#N)cc4Cl)cc3c2)C1 [Example 280],0.0419 µM
13,"CC(=O)N1CCC(c2cc(Cn3cnc4c(N)ncnc43)c3[nH]c(CNC(=O)c4ccc(C#N)cc4Cl)cc3c2)CC1 [Example 281, N-({5-(1-acetylpiperidin-4-yl)-7-[(6-amino-9H-purin-9-yl)methyl]-1H-indol-2-yl}methyl)-2-chloro-4-cyanobenzamide]",0.141 µM
14,"N#Cc1ccc(C(=O)NCc2cc3c(Cl)ccc(Cn4cnc5c(N)ncnc54)c3[nH]2)c(Cl)c1 [Example 282, N-({7-[(6-amino-9H-purin-9-yl)methyl]-4-chloro-1H-indol-2-yl}methyl)-2-chloro-4-cyanobenzamide]",0.0723 µM
15,"N#Cc1cc(Cl)c(C(=O)NCc2cc3cc(Cl)cc(Cn4cnc5c(N)ncnc54)c3[nH]2)c(Cl)c1 [Example 283, N-({7-[(6-amino-9H-purin-9-yl)methyl]-5-chloro-1H-indol-2-yl}methyl)-2,6-dichloro-4-cyanobenzamide]",0.0526 µM
16,"N#Cc1ccc(C(=O)NCc2cc3cc(Cl)cc(Cn4cnc5c(N)ncnc54)c3[nH]2)c(F)c1 [Example 284, N-({7-[(6-amino-9H-purin-9-yl)methyl]-5-chloro-1H-indol-2-yl}methyl)-4-cyano-2-fluorobenzamide]",0.0908 µM
17,"N#Cc1ccc(C(=O)NCc2cc3cc(C4=CCOCC4)cc(Cn4cnc5c(N)ncnc54)c3[nH]2)c(F)c1 [Example 285, N-({7-[(6-amino-9H-purin-9-yl)methyl]-5-(3,6-dihydro-2H-pyran-4-yl)-1H-indol-2-yl}methyl)-4-cyano-2-fluorobenzamide]",0.0579 µM
